Results on four compounds are retold here after BindingDB's records for doi:10.1016/j.chembiol.2004.11.007 (University of Sheffield, 2005).

This test has as its target Calmodulin-1 (Homo sapiens, UniProt P0DP23). The experiment in a line: Fluorescence spectroscopy. As for the experimental part: Experiments were conducted with HITACHI-4500 and Shimadzu RF-5301 fluorescence spectrophotometer.
As to `O=S(=O)(Nc1ccc(NS(=O)(=O)c2cccc3ccccc23)cc1)c1cccc2ccccc12` [BN1], the Kd (in general, the concentration at which binding is half-saturated) amounted to 0.07 µM.

Take `COC(=O)[C@@H](CC(=O)c1cccc(C(=O)C[C@@H](Cc2c[nH]c3ccccc23)C(=O)OC)c1)Cc1c[nH]c2ccccc12` [BT1]: the dissociation constant Kd is 10 µM. `O=S(=O)(Nc1cccc(NS(=O)(=O)c2cccc3ccccc23)c1)c1cccc2ccccc12` [BN2] showed a Kd of 0.01 µM. With `COC(=O)[C@@H](CC(=O)Cc1ccc(/C=C/c2ccc(CC(=O)C[C@@H](Cc3c[nH]c4ccccc34)C(=O)OC)cc2)cc1)Cc1c[nH]c2ccccc12` [BT2] the figure was 9 µM.
